{"source": "patent US5358951A", "about": "“Angiotensin II receptor blocking 2, 3, 6 substituted quinazolinones” (American Cyanamid Company, priority 1993, dated 1994)", "tested_on": "vasopressor response of angiotensin II", "test": "AII Challenge: antagonism of angiotensin II vasopressor response;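 for Response Average Change: post-dose Angiotensin II-evoked rise in systolic blood pressure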", "assay_type": "in vivo", "details": "for inhibition in vivo at 1 mg/kg / inhibition in vivo at 3 mg/kg: Rattus norvegicus; for inhibition in vivo at 1 mg/kg: iv; for inhibition in vivo at 3 mg/kg: po", "procedure,_shortened": "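Conscious male SHR (16-20 weeks) with aortic and caval cannulae received angiotensin II at 0.05 and 0.1 ug/kg i.v. before and 30-300 min after compound dosing (i.v., i.p. or oral). Blockade is expressed as % of each rat's predose rise in systolic pressure.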", "data": [{"smiles": "CCCCc1nc2ccc(C3(C(=O)OC)CC4CCCN4O3)cc2c(=O)n1Cc1ccc(-c2ccccc2-c2nnn[nH]2)cc1", "note": "(mixture of isomers) [Example 78, Trans(+/-)-Methyl-2-[2-butyl-3,4-dihydro-4-oxo-3-[[2'-(1H-tetrazol-5-yl)[1,1'-biphenyl]-4-yl]methyl-6-quinazolinyl]hexahydropyrrolo[1,2-b]isoxazole-2-carboxylate]", "values": [{"measurement": "Response Average Change", "setting": "1 mg/kg i.v., AII 0.05 mcg/kg IV, 30 min post dose", "result": 5, "unit": "mmHg"}, {"measurement": "Response Average Change", "setting": "1 mg/kg i.v., AII 0.05 mcg/kg IV, 60 min post dose", "result": 12.5, "unit": "mmHg"}, {"measurement": "Response Average Change", "setting": "1 mg/kg i.v., AII 0.05 mcg/kg IV, 90 min post dose", "result": 7.5, "unit": "mmHg"}, {"measurement": "Response Average Change", "setting": "1 mg/kg i.v., AII 0.05 mcg/kg IV, 120 min post dose", "result": 10, "unit": "mmHg"}, {"measurement": "Response Average Change", "setting": "1 mg/kg i.v., AII 0.05 mcg/kg IV, 180 min post dose", "result": 11, "unit": "mmHg"}, {"measurement": "Response Average Change", "setting": "1 mg/kg i.v., AII 0.05 mcg/kg IV, 240 min post dose", "result": 12.5, "unit": "mmHg"}, {"measurement": "Response Average Change", "setting": "1 mg/kg i.v., AII 0.05 mcg/kg IV, 300 min post dose", "result": 5, "unit": "mmHg"}, {"measurement": "Response Average Change", "setting": "1 mg/kg i.v., AII 0.1 mcg/kg IV, 30 min post dose", "result": 15, "unit": "mmHg"}, {"measurement": "Response Average Change", "setting": "1 mg/kg i.v., AII 0.1 mcg/kg IV, 60 min post dose", "result": 12.5, "unit": "mmHg"}, {"measurement": "Response Average Change", "setting": "1 mg/kg i.v., AII 0.1 mcg/kg IV, 90 min post dose", "result": 15, "unit": "mmHg"}, {"measurement": "Response Average Change", "setting": "1 mg/kg i.v., AII 0.1 mcg/kg IV, 120 min post dose", "result": 17.5, "unit": "mmHg"}, {"measurement": "Response Average Change", "setting": "1 mg/kg i.v., AII 0.1 mcg/kg IV, 180 min post dose", "result": 12.5, "unit": "mmHg"}, {"measurement": "Response Average Change", "setting": "1 mg/kg i.v., AII 0.1 mcg/kg IV, 240 min post dose", "result": 12.5, "unit": "mmHg"}, {"measurement": "Response Average Change", "setting": "1 mg/kg i.v., AII 0.1 mcg/kg IV, 300 min post dose", "result": 17.5, "unit": "mmHg"}, {"measurement": "Response Average Change", "setting": "3 mg/kg P.O., AII 0.05 mcg/kg IV, 30 min post dose", "result": 27.5, "unit": "mmHg"}, {"measurement": "Response Average Change", "setting": "3 mg/kg P.O., AII 0.05 mcg/kg IV, 60 min post dose", "result": 22.5, "unit": "mmHg"}, {"measurement": "Response Average Change", "setting": "3 mg/kg P.O., AII 0.05 mcg/kg IV, 90 min post dose", "result": 22.5, "unit": "mmHg"}, {"measurement": "Response Average Change", "setting": "3 mg/kg P.O., AII 0.05 mcg/kg IV, 120 min post dose", "result": 17.5, "unit": "mmHg"}, {"measurement": "Response Average Change", "setting": "3 mg/kg P.O., AII 0.05 mcg/kg IV, 180 min post dose", "result": 19, "unit": "mmHg"}, {"measurement": "Response Average Change", "setting": "3 mg/kg P.O., AII 0.05 mcg/kg IV, 240 min post dose", "result": 19, "unit": "mmHg"}, {"measurement": "Response Average Change", "setting": "3 mg/kg P.O., AII 0.05 mcg/kg IV, 300 min post dose", "result": 27.5, "unit": "mmHg"}, {"measurement": "Response Average Change", "setting": "3 mg/kg P.O., AII 0.1 mcg/kg IV, 30 min post dose", "result": 35, "unit": "mmHg"}, {"measurement": "Response Average Change", "setting": "3 mg/kg P.O., AII 0.1 mcg/kg IV, 60 min post dose", "result": 25, "unit": "mmHg"}, {"measurement": "Response Average Change", "setting": "3 mg/kg P.O., AII 0.1 mcg/kg IV, 90 min post dose", "result": 17.5, "unit": "mmHg"}, {"measurement": "Response Average Change", "setting": "3 mg/kg P.O., AII 0.1 mcg/kg IV, 120 min post dose", "result": 15, "unit": "mmHg"}, {"measurement": "Response Average Change", "setting": "3 mg/kg P.O., AII 0.1 mcg/kg IV, 180 min post dose", "result": 17.5, "unit": "mmHg"}, {"measurement": "Response Average Change", "setting": "3 mg/kg P.O., AII 0.1 mcg/kg IV, 240 min post dose", "result": 17.5, "unit": "mmHg"}, {"measurement": "Response Average Change", "setting": "3 mg/kg P.O., AII 0.1 mcg/kg IV, 300 min post dose", "result": 25, "unit": "mmHg"}, {"measurement": "inhibition in vivo at 1 mg/kg", "setting": "0.5 h, 1 mg/kg i.v., AII 0.05 mcg/kg IV, 30 min post dose", "result": 80, "unit": "%"}, {"measurement": "inhibition in vivo at 1 mg/kg", "setting": "0.5 h, 1 mg/kg i.v., AII 0.1 mcg/kg IV, 30 min post dose", "result": 45, "unit": "%"}, {"measurement": "inhibition in vivo at 1 mg/kg", "setting": "1 h, 1 mg/kg i.v., AII 0.05 mcg/kg IV, 60 min post dose", "result": 50, "unit": "%"}, {"measurement": "inhibition in vivo at 1 mg/kg", "setting": "1 h, 1 mg/kg i.v., AII 0.1 mcg/kg IV, 60 min post dose", "result": 55, "unit": "%"}, {"measurement": "inhibition in vivo at 1 mg/kg", "setting": "2 h, 1 mg/kg i.v., AII 0.05 mcg/kg IV, 120 min post dose", "result": 60, "unit": "%"}, {"measurement": "inhibition in vivo at 1 mg/kg", "setting": "2 h, 1 mg/kg i.v., AII 0.1 mcg/kg IV, 120 min post dose", "result": 36, "unit": "%"}, {"measurement": "inhibition in vivo at 1 mg/kg", "setting": "3 h, 1 mg/kg i.v., AII 0.05 mcg/kg IV, 180 min post dose", "result": 56, "unit": "%"}, {"measurement": "inhibition in vivo at 1 mg/kg", "setting": "3 h, 1 mg/kg i.v., AII 0.1 mcg/kg IV, 180 min post dose", "result": 55, "unit": "%"}, {"measurement": "inhibition in vivo at 1 mg/kg", "setting": "4 h, 1 mg/kg i.v., AII 0.05 mcg/kg IV, 240 min post dose", "result": 50, "unit": "%"}, {"measurement": "inhibition in vivo at 1 mg/kg", "setting": "4 h, 1 mg/kg i.v., AII 0.1 mcg/kg IV, 240 min post dose", "result": 55, "unit": "%"}, {"measurement": "inhibition in vivo at 1 mg/kg", "setting": "5 h, 1 mg/kg i.v., AII 0.05 mcg/kg IV, 300 min post dose", "result": 80, "unit": "%"}, {"measurement": "inhibition in vivo at 1 mg/kg", "setting": "5 h, 1 mg/kg i.v., AII 0.1 mcg/kg IV, 300 min post dose", "result": 36, "unit": "%"}, {"measurement": "inhibition in vivo at 1 mg/kg", "setting": "[…], 1 mg/kg i.v., AII 0.05 mcg/kg IV, 90 min post dose", "result": 70, "unit": "%"}, {"measurement": "inhibition in vivo at 1 mg/kg", "setting": "[…], 1 mg/kg i.v., AII 0.1 mcg/kg IV, 90 min post dose", "result": 45, "unit": "%"}, {"measurement": "inhibition in vivo at 3 mg/kg", "setting": "0.5 h, 3 mg/kg P.O., AII 0.05 mcg/kg IV, 30 min post dose", "result": 0, "unit": "%"}, {"measurement": "inhibition in vivo at 3 mg/kg", "setting": "0.5 h, 3 mg/kg P.O., AII 0.1 mcg/kg IV, 30 min post dose", "result": -17, "unit": "%"}, {"measurement": "inhibition in vivo at 3 mg/kg", "setting": "1 h, 3 mg/kg P.O., AII 0.05 mcg/kg IV, 60 min post dose", "result": 18, "unit": "%"}, {"measurement": "inhibition in vivo at 3 mg/kg", "setting": "1 h, 3 mg/kg P.O., AII 0.1 mcg/kg IV, 60 min post dose", "result": 17, "unit": "%"}, {"measurement": "inhibition in vivo at 3 mg/kg", "setting": "2 h, 3 mg/kg P.O., AII 0.05 mcg/kg IV, 120 min post dose", "result": 36, "unit": "%"}, {"measurement": "inhibition in vivo at 3 mg/kg", "setting": "2 h, 3 mg/kg P.O., AII 0.1 mcg/kg IV, 120 min post dose", "result": 50, "unit": "%"}, {"measurement": "inhibition in vivo at 3 mg/kg", "setting": "3 h, 3 mg/kg P.O., AII 0.05 mcg/kg IV, 180 min post dose", "result": 31, "unit": "%"}, {"measurement": "inhibition in vivo at 3 mg/kg", "setting": "3 h, 3 mg/kg P.O., AII 0.1 mcg/kg IV, 180 min post dose", "result": 42, "unit": "%"}, {"measurement": "inhibition in vivo at 3 mg/kg", "setting": "4 h, 3 mg/kg P.O., AII 0.05 mcg/kg IV, 240 min post dose", "result": 31, "unit": "%"}, {"measurement": "inhibition in vivo at 3 mg/kg", "setting": "4 h, 3 mg/kg P.O., AII 0.1 mcg/kg IV, 240 min post dose", "result": 42, "unit": "%"}, {"measurement": "inhibition in vivo at 3 mg/kg", "setting": "5 h, 3 mg/kg P.O., AII 0.05 mcg/kg IV, 300 min post dose", "result": 0, "unit": "%"}, {"measurement": "inhibition in vivo at 3 mg/kg", "setting": "5 h, 3 mg/kg P.O., AII 0.1 mcg/kg IV, 300 min post dose", "result": 17, "unit": "%"}, {"measurement": "inhibition in vivo at 3 mg/kg", "setting": "[…], 3 mg/kg P.O., AII 0.05 mcg/kg IV, 90 min post dose", "result": 18, "unit": "%"}, {"measurement": "inhibition in vivo at 3 mg/kg", "setting": "[…], 3 mg/kg P.O., AII 0.1 mcg/kg IV, 90 min post dose", "result": 42, "unit": "%"}]}]}
